Experimental data: patent US20260345834A1, “NIR-LIGHT ACTIVATABLE NANOGEL DELIVERY SYSTEM” (THE BOARD OF TRUSTEES OF THE UNIVERSITY OF ILLINOIS, priority 2022, published 2026)

Columns and labels:
Assay type in all cases: physicochemical
[1] = Passive release of encapsulated cargo via dialysis; conditions: drug-loaded NIR-nanogel, dialysis against MilliQ/DI water; for passive leeching of cargo (concentration loss): three hours
Procedure: FIG. 10A-D. Passive release of encapsulated a) cisplatin b) gefitinib c) GW9662 and d) Paclitaxel via dialysis for 0, 1, 2, and 4 hours against DI water.
After extensive screening, we obtained an optimized procedure that yielded reliable encapsulation results for each drug. We discovered that slow addition (versus bolus addition) of the drug to NIR-nanogel samples was essential to maintain a homogeneous suspension of the particles in solution. Further, the inclusion of at least 10% ethanol as a solubilizing co-solvent was necessary for drug encapsulation. […] After removal of non-encapsulated drug, we established a method to assess passive leeching of the contents by dialyzing the drug-loaded sample against MilliQ water. Small aliquots were removed at various time points and compared to the initial cargo concentration. […] In general, the extent of passive cargo loss was determined by placing a photobleached sample of each drug-loaded NIR-nanogel in 3 kDa MWCO dialysis tubing for dialysis against DI water. Aliquots were taken to determine the absorbance at various time points for comparison against the corresponding calibration curve.

[2] = Absorption spectrum and extinction coefficient in DMSO
From the text: With the various components in hand, we turned our attention to testing whether the amide moiety would impact the photophysical properties of the cyanine core. First, we analyzed the absorption spectrum and measured the extinction coefficient of Cy780-Acryl. Compared to the Cy7-Cl reference in DMSO, the λmax (831 nm cf. 793 nm) and extinction coefficients (1.11×10^5 M^−1cm^−1 cf. 1.23×10^5 M^−1cm^−1) were similar. Next, we evaluated the photostability of the crosslinker. When Cy780-Acryl (as well as Cy780-Acetamido) was irradiated with a LED light source at 780 nm (300 mW power output, 47.3 μW/mm^2 maximum irradiance), we found complete degradation of the molecule after only 25 minutes based on the disappearance of the NIR absorbance band (FIG. 2). […] Of note, when dissolved oxygen was removed prior to the initiation of photobleaching, we found the change in absorbance to be minimal, supporting the proposed dioxetane mechanism (FIG. 4). Indeed, the anticipated carbonyl fragmentation products were detected via LC-MS when samples were irradiated in the presence of oxygen (FIG. 5).
^1H and ^13C NMR spectra were acquired on a Varian 500 or Carver B500 spectrometer. […] Spectra were visualized and analyzed using MestReNova (version 14.2) and referenced to trace non-deuterated solvent. […]

[3] = Photobleaching under 780 nm LED irradiation (NIR absorbance)
Procedure: FIG. 2. […] Time points=0, 15, 30 mins. Samples were irradiated with a LED light source at 780 m, (300 mW power output, 47.3 μW/mm^2 maximum irradiance).
FIG. 3. Absorption measurements of a 25 μM solution of a) Cy7-Cl and b) Cy780-Acryl when irradiated with a 780 nm LED light. Time points=0, 15, 30 mins. Samples were irradiated with a LED light source at 780 m, (300 mW power output, 47.3 μW/mm^2 maximum irradiance).
FIG. 4. Absorption measurements of a NIR-nanogel sample without dissolved oxygen when irradiated with a 780 nm LED light. Time points=0, 15, 30, 45, 60, 75, 90 mins. Samples were irradiated with a LED light source at 780 m, (300 mW power output, 47.3 μW/mm^2 maximum irradiance).
Time points=0, 15, 30, 45, 60, 90, 120, 150, 180 mins. b) Diameter of NIR-nanogels with and without NIR light irradiation measured via dynamic light scattering (left) and scanning electron microscopy (right). […] (n=300 for SEM) Scale bar represents 500 nm. e) Normalized absorbance of nanogels exposed to biologically relevant reactive species. f) Normalized absorbance of nanogels suspended in Britton-Robinson buffer (pH 4.2 to 12.0). […]
With the various components in hand, we turned our attention to testing whether the amide moiety would impact the photophysical properties of the cyanine core. First, we analyzed the absorption spectrum and measured the extinction coefficient of Cy780-Acryl. […]

Row | Compound | passive leeching of cargo (concentration loss) [1] | passive release of cargo (result in words) [1] | also measured
1 | N.N.[Cl][Pt][Cl] [cisplatin] | ~ 50% | – | –
2 | COc1cc2ncnc(Nc3ccc(F)c(Cl)c3)c2cc1OCCCN1CCOCC1 [gefitinib] | ~ 6% | – | –
3 | CC(=O)O[C@H]1C(=O)[C@@]2(C)[C@H]([C@H](OC(=O)c3ccccc3)[C@]3(O)C[C@H](OC(=O)[C@H](O)[C@@H](NC(=O)c4ccccc4)c4ccccc4)C(C)=C1C3(C)C)[C@]1(OC(C)=O)CO[C@@H]1C[C@@H]2O [paclitaxel] | – | minimal leeching | –
4 | O=C(Nc1ccccc1)c1cc([N+](=O)[O-])ccc1Cl [GW9662] | – | no passive release | –
5 | C=CC(=O)Nc1ccc2c(c1)C(C)(C)C(/C=C/C1=C(Cl)C(=C/C=C3/N(CC)c4ccc(NC(=O)C=C)cc4C3(C)C)/CCC1)=[N+]2CC [Cy780-Acryl] | – | – | extinction coefficient [2]: 111000 M⁻¹ cm⁻¹; λmax [2]: 831 nm; change in absorbance on irradiation without dissolved oxygen ([3]; 780 nm LED, dissolved oxygen removed prior to photobleaching): minimal; time to complete degradation (disappearance of the NIR absorbance band) ([3]; LED 780 nm, 300 mW power output, 47.3 μW/mm^2 maximum irradiance): 25 min
